Reference: paper PMC10174618, “Monoterpenoid aryl hydrocarbon receptor allosteric antagonists protect against ultraviolet skin damage in female mice” (Nature Communications, 2023)

What was measured:
Assay in all cases: biochemical
Design in all cases: KINOMEscan scanMAX active site-directed competition binding assay, percent of control, 468 kinases
Conditions in all cases: competition binding, percent of control
[1] = target: T1, JAK3(JH1domain-catalytic) (Homo sapiens, UniProt P52333)
T1 construct: JH1domain-catalytic
How it was run: (§1)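 Single-concentration screen (100 μM S-carvone) in a competition binding panel of 468 human kinases (KINOMEscan scanMAX); results given as percent of control, hit cutoff 35%.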

CSK = CSK (Homo sapiens, UniProt P41240)
How it was run: as §1

INSR = INSR (Homo sapiens, UniProt P06213)
How it was run: as §1

CAMK2B = CAMK2B (Homo sapiens, UniProt Q13554)
How it was run: as §1

FLT3(N841I) = FLT3(N841I) (Homo sapiens, UniProt P36888, N841I)
How it was run: as §1

TNIK = TNIK (Homo sapiens, UniProt Q9UKE5)
TNIK, sequence (Q9UKE5 whole entry): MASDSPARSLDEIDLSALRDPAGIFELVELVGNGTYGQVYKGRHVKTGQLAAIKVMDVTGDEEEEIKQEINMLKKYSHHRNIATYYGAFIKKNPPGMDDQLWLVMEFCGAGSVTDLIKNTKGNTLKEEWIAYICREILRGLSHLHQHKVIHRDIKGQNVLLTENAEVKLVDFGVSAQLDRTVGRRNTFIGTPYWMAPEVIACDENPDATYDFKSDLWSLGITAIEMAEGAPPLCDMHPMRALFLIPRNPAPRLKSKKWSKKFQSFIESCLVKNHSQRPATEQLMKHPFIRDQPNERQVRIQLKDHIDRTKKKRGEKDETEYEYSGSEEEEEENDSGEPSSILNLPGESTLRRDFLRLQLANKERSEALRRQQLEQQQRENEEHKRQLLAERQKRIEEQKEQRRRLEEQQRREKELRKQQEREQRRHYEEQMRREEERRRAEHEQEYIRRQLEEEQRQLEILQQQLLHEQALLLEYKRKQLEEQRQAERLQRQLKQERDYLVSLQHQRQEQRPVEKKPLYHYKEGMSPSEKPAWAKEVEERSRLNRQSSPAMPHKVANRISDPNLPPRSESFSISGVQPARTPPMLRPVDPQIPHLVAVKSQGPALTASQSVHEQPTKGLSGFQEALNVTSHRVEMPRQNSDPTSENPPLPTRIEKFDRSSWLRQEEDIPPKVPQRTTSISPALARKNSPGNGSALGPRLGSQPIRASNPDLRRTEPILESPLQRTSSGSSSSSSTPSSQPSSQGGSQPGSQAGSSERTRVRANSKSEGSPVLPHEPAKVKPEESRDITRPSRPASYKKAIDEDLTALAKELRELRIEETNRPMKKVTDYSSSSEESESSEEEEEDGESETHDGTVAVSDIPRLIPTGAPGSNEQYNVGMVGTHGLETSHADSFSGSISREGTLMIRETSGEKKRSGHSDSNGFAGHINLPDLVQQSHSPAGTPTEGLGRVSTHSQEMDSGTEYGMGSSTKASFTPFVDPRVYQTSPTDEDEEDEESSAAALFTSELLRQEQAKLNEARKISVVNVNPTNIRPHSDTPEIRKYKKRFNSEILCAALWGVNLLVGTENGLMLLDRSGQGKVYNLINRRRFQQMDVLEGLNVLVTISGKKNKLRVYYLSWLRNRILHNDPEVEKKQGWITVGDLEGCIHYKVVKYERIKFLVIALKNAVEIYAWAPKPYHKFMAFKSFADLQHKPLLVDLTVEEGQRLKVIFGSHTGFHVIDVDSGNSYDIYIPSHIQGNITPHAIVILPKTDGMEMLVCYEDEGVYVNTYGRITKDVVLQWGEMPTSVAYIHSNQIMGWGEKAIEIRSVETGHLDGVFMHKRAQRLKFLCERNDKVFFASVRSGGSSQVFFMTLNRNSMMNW
How it was run: as §1

MYLK = MYLK (Homo sapiens, UniProt Q15746)
How it was run: as §1

YES = target: T2, YES (Homo sapiens, UniProt P07947)
T2 construct: gene YES1
How it was run: as §1

RIPK4 = RIPK4 (Homo sapiens, UniProt P57078)
How it was run: as §1

MEK3 = target: T3, MEK3 (Homo sapiens, UniProt P46734)
T3 construct: gene MAP2K3
T3 sequence (P46734 whole entry): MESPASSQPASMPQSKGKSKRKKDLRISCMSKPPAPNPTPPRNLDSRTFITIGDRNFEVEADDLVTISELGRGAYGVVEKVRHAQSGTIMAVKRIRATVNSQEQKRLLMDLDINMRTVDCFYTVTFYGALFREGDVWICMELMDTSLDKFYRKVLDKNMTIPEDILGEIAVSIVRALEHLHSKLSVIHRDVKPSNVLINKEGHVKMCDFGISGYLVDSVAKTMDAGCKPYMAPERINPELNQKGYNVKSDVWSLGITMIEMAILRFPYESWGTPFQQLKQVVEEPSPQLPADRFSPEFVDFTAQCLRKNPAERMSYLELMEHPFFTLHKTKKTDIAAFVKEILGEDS
How it was run: as §1

PAK2 = PAK2 (Homo sapiens, UniProt Q13177)
PAK2, sequence (Q13177 whole entry): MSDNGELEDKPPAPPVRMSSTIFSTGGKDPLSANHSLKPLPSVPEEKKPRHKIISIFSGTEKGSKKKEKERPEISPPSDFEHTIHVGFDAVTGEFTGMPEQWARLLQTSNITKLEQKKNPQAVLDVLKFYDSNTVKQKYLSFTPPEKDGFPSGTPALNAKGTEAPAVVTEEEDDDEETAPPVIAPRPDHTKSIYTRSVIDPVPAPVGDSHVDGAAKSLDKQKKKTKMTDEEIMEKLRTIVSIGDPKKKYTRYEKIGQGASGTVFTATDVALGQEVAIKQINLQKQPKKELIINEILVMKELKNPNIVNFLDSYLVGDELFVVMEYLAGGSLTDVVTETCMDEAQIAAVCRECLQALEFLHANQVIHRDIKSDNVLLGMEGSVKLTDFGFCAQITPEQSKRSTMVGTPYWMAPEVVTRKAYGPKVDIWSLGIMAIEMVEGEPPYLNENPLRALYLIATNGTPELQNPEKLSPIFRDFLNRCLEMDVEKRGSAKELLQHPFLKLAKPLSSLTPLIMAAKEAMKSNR
How it was run: as §1

CDK3 = CDK3 (Homo sapiens, UniProt Q00526)
CDK3, sequence (Q00526 whole entry): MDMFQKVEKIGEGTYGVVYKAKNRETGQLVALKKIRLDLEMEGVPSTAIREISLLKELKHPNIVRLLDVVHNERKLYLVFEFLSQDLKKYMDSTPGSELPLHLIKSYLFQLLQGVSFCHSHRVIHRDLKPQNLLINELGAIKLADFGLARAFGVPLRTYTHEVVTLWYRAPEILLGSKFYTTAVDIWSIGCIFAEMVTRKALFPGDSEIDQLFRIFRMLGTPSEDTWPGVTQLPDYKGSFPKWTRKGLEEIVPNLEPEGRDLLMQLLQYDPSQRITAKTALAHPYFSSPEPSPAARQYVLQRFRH
How it was run: as §1

TRKA = target: T4, TRKA (Homo sapiens, UniProt P04629)
T4 construct: gene NTRK1
How it was run: as §1

KIT(L576P) = KIT(L576P) (Homo sapiens, UniProt P10721, L576P)
How it was run: as §1

PRKR = target: T5, PRKR (Homo sapiens, UniProt P19525)
T5 construct: gene EIF2AK2
How it was run: as §1

PLK1 = PLK1 (Homo sapiens, UniProt P53350)
How it was run: as §1

EGFR(G719S) = EGFR(G719S) (Homo sapiens, UniProt P00533, G719S)
How it was run: as §1

MELK = MELK (Homo sapiens, UniProt Q14680)
How it was run: as §1

MAP3K3 = MAP3K3 (Homo sapiens, UniProt Q99759)
How it was run: as §1

FGFR1 = FGFR1 (Homo sapiens, UniProt P11362)
How it was run: as §1

MAP3K4 = MAP3K4 (Homo sapiens, UniProt Q9Y6R4)
MAP3K4, sequence (Q9Y6R4 whole entry): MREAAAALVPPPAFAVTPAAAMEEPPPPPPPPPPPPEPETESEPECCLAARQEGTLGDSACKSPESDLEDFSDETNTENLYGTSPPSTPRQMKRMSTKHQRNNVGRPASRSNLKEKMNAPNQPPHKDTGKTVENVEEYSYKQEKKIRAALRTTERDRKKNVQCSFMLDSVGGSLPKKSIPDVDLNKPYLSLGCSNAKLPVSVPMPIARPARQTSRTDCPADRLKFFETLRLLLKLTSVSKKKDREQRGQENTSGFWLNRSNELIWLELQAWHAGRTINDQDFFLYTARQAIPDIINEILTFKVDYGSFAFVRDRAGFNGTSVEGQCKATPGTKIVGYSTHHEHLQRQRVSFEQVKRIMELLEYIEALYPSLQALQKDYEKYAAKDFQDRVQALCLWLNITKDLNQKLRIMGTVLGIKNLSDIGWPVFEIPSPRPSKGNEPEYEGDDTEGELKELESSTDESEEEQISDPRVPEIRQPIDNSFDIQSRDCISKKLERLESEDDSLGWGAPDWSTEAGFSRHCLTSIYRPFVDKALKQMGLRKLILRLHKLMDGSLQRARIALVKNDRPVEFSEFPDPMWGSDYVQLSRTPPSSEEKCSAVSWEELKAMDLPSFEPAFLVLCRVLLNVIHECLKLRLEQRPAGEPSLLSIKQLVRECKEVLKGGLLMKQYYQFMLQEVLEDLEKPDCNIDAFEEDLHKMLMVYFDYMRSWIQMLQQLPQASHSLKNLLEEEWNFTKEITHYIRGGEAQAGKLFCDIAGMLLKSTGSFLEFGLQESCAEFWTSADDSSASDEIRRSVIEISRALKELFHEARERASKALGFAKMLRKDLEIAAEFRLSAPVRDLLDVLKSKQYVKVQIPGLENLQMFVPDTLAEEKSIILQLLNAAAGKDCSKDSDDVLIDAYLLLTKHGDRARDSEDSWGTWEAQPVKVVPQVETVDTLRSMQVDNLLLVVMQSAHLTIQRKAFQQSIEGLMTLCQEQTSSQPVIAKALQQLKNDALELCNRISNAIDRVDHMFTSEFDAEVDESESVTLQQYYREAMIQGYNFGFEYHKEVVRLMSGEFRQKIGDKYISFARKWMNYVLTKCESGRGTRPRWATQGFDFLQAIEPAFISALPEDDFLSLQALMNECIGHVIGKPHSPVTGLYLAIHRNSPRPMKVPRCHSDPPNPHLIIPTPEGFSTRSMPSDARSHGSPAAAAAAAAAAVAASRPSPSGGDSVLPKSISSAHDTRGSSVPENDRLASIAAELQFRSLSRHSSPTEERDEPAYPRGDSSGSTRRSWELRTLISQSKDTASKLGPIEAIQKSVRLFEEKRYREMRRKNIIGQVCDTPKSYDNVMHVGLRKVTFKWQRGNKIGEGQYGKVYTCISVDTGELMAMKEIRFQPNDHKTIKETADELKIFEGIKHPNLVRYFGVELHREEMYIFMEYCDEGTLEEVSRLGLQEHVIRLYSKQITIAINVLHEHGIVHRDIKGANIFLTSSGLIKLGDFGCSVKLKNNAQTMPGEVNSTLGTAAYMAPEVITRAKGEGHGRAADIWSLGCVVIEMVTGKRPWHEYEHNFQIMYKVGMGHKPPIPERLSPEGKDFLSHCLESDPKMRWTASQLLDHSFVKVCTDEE
How it was run: as §1

HASPIN = HASPIN (Homo sapiens, UniProt Q8TF76)
HASPIN, sequence (Q8TF76 whole entry): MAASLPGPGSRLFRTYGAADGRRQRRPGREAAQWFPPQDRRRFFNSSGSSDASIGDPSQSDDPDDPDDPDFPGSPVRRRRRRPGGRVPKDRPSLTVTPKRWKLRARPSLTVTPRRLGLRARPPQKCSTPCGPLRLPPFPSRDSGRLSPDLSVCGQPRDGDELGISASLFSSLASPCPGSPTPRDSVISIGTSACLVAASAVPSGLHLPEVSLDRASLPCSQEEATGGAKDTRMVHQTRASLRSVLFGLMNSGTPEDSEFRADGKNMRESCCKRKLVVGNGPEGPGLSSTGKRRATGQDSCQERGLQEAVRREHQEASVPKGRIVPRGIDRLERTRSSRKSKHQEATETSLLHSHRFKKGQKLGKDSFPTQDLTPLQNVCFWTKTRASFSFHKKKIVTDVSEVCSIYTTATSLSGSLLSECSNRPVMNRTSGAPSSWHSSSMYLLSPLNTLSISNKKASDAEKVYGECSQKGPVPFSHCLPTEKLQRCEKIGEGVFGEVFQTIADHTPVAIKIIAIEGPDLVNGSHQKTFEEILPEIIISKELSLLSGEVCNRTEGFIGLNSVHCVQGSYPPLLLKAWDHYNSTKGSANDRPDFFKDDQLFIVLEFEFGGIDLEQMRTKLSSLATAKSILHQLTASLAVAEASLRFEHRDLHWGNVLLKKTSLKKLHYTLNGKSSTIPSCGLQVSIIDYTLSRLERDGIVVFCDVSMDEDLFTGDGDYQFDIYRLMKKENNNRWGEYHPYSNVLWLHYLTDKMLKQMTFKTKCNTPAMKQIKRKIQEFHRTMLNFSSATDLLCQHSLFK
How it was run: as §1

remaining binding at 100 µM [1]: 90%
remaining binding at 100 µM (CSK): 88%
remaining binding at 100 µM (INSR): 68%
remaining binding at 100 µM (CAMK2B): 86%
remaining binding at 100 µM (FLT3(N841I)): 63%
remaining binding at 100 µM (TNIK): 84%
remaining binding at 100 µM (MYLK): 51%
remaining binding at 100 µM (YES): 84%
remaining binding at 100 µM (RIPK4): 64%
remaining binding at 100 µM (MEK3): 84%
remaining binding at 100 µM (PAK2): 98%
remaining binding at 100 µM (CDK3): 92%
remaining binding at 100 µM (TRKA): 82%
remaining binding at 100 µM (KIT(L576P)): 71%
remaining binding at 100 µM (PRKR): 74%
remaining binding at 100 µM (PLK1): 68%
remaining binding at 100 µM (EGFR(G719S)): 72%
remaining binding at 100 µM (MELK): 99%
remaining binding at 100 µM (MAP3K3): 54%
remaining binding at 100 µM (FGFR1): 92%
remaining binding at 100 µM (MAP3K4): 79%
remaining binding at 100 µM (HASPIN): 74%
SMILES: C=C(C)[C@H]1CC=C(C)C(=O)C1 [S-carvone]
